Source: patent US8685655B2, “Dissociation method and dissociation agent for avidin and biotin derivatives” (JSR Corporation, priority 2009, dated 2014)

Key:
avidin = avidin (Gallus gallus, UniProt P02701); details: cited from earlier work
[1] = target: T1, streptavidin magnetic particles-desthiobiotin-bound probe molecules-target substance complex (Streptomyces avidinii, UniProt P22629); experiment: Dissociation efficiency: target cells released from the capturing carrier by the dissociation agent (quantitative PCR cell count); details: 250 μL dissociation agent liquid in PBS, room temperature, 20 minutes; HT-29 cells isolated / cells bound x 100
T1 construct: purchased Invitrogen Dynabeads M-280 Streptavidin
T1 sequence (P22629 25-183, one chain of several): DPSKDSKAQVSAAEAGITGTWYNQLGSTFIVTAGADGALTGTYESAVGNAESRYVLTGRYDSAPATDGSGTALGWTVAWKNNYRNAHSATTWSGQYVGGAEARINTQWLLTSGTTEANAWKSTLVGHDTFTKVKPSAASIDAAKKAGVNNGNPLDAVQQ
Method: The number of cells was determined by measuring the quantity of genome DNA according to the quantitative PCR method.
(1) Measurement of the Number of Cells Bound to the Capturing Carrier:
50 μL of 0.8 mg/mL solution of proteinase K (protease, manufactured by Qiagen N.V.) dissolved in 10-mM Tris-HCl buffer solution (pH: 8.3) was added to the total amount of the combination of the capturing carrier and the target cells yielded in the below Examples and Comparative Example, and the resultant was reacted by heating at 55° C. for 15 minutes to elute DNA. Subsequently, this solution was heated at 95° C. for 20 minutes to inactivate proteinase K. 20 μL of the resultant DNA solution was added to 30 μL of a quantitative PCR cocktail (Fast Start Taq, manufactured by Roche (Co.)) to carry out quantitative PCR. Other DNA solutions prepared by the same method using predetermined number of cells were used to prepare a calibration curve. A 7500 Real-Time PCR System, manufactured by Applied Biosystems (Co.), was used for the quantitative PCR.
(2) Measurement of the Number of Cells Isolated from the Capturing Carrier: […]
The efficiency of dissociation of (strept) avidin from the biotin derivative was determined according to the following equation: Efficiency of Dissociation (%)=“the number of the cells isolated from the capturing carrier”/“the number of the cells bound to the capturing carrier”×100
1 mg aliquots of the capturing carrier yielded in Preparation Example 2 were added into test tubes. […] The number of the cells bound to the isolated capturing carrier was measured, and the number was 8,500, which was 85% of the number of the cells used for the Example. […]

Sequence of avidin (P02701 25-152, species assumed): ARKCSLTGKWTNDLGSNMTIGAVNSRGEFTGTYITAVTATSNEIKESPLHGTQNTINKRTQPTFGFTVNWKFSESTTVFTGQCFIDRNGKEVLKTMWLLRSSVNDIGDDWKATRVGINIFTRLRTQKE

| Compound | binding constant with avidin (avidin) | Dissociation efficiency (%) [1] |
| --- | --- | --- |
| O=C(O)CCCC[C@@H]1SC[C@@H]2NC(=O)N[C@@H]21 [Biotin, biotin] | 10^15 M | 3% |
| BSA-Biotin6: dissociation agent in which six (6) in average of biotin were bound to one molecule of BSA | – | 70% |
| BSA-Biotin10: dissociation agent in which ten (10) in average of biotin were bound to one molecule of BSA | – | 96% |
